The source of these data is patent US5362747A, “2-nitroaryl and 2-cyanoaryl compounds as regulators of nitric oxide synthase” (Abbott Laboratories, priority 1993, dated 1994).

Assay [1] concerns bovine coronary artery. The note with it: cited from earlier work.
In assay [2] the target is T1, Type I (rat brain) NOS (Rattus norvegicus, UniProt P29476).
T1 construct: isolated from rat brain cerebellum cells partially purified on a phosphocellulose column; from tissue; host or cells: rat brain cerebellum, partially purified on phosphocellulose
Briefly: [3H]-arginine to [3H]-citrulline conversion, Type I (rat brain) NOS. The assay is classed as biochemical. The note with it: rat brain cerebellum NOS, 25° C.; for inhibition at 100 µM: read-out: Type I % inhib. @ 100 μM.
Description: Briefly, samples of partially purified NO synthase, 50-100 mg of partially purified NO synthase or, alternately, 20 mL of a cytosolic preparation of NO synthase. The type 1 isoform of NO synthase was isolated from rat brain cerebellum cells partially purified on a phosphocellulose column. […] The reaction was stopped by adding 1 mL of stop buffer (2 mM EGTA, 2 mM EDTA, 20 mM HEPES, pH 5.5). The total volume was then applied to a 1 mL Dowex AG 50WX-8 column (Na^+ form, BioRad) that had been pre-equilibrated with the stop buffer. L-[2,3-^3 H]Citrulline was eluted (2×) with 0.5 mL of stop buffer and radioactivity was determined by liquid scintillation counting.

Assay [3] concerns the target T2, Type II (macrophage) NOS (Mus musculus, UniProt P29477).
T2 construct: cytosolic preparations of NO synthase (type II isoform) were prepared from RAW 264.7 cells; endogenous in cells; host or cells: RAW 264.7 cells, induced 16 hours with lipopolysaccharide; cytosolic preparation
Briefly: [3H]-arginine to [3H]-citrulline conversion, Type II (macrophage) NOS. The class given is biochemical, murine. The conditions noted are these: cytosolic NOS from LPS-induced RAW 264.7 cells, 25° C.; for inhibition at 100 µM: read-out: Type II % inhib. @ 100 μM. The source says:
The enzyme NO synthase produces EDRF/NO and citrulline from L-arginine (Bredt and Snyder, Proc. Nat'l Acad Sci USA, 1989, 87: 682-5). The enzymatic generation of EDRF/NO is monitored by measuring the conversion of [^3 H]-L-arginine to [^3 H]-L-citrulline. An inhibitor of this specific enzymatic reaction lowers the conversion rate and, thus, the amount of [^3 H]-L-citrulline produced. Likewise, a compound acting as a substrate would compete with L-arginine and thereby lower the conversion rate.
The conversion of L-arginine to L-citrulline was assayed as reported previously (Bredt and Snyder, Proc. Nat'l Acad Sci USA, 1989, 87: 682-5) with minor modifications. Briefly, samples of partially purified NO synthase, […] of partially purified NO synthase or, alternately, […] of a cytosolic preparation of NO synthase. The type 1 isoform of NO synthase was isolated from rat brain cerebellum cells partially purified on a phosphocellulose column. The cytosolic preparations of NO synthase (type II isoform) were prepared from RAW 264.7 cells (a murine monocyte-macrophage cell line), induced for 16 hours with […] medium of lipopolysaccharide (LPS). Another enzyme isoform (type III)is known to be present in bovine endothelial cells (BAE cells), and can be utilized if an additional assay is desired. The samples of enzyme were incubated for 20 minutes (3 minutes in the cases of purified enzyme preparations) at 25° C. in the presence of […] L-[2,3-^3 H]arginine (55 Ci /mmol) (containing 34 nM (0.2 mCi)), 1 mM NADPH, 100 nM calmodulin, 2 mM CaCl2, and with varying concentrations of inhibitors, in a final volume of […]. The reaction was stopped by adding 1 mL of stop buffer (2 mM EGTA, 2 mM EDTA, 20 mM HEPES, pH 5.5). The total volume was then applied to a 1 mL Dowex AG 50WX-8 column (Na^+ form, BioRad) that had been pre-equilibrated with the stop buffer. L-[2,3-^3 H]Citrulline was eluted (2×) with 0.5 mL of stop buffer and radioactivity was determined by liquid scintillation counting. The L-[2,3-^3 H]arginine (Dupont, NEN) was purified prior to use on Dowex AG-1-X8 (CH3 CO2 -- form, Bio-Rad), eluted with distilled water, acidified, concentrated on a Speed-Vac (Savant) and stored at -20° C.

Assay [4] relates to NO synthase enzyme. The conditions noted are these: cited from earlier work.
For assay [5], the system named is EDRF (NO) production. The note with it: cited from earlier work.

T2 sequence (P29477 whole entry, canonical isoform): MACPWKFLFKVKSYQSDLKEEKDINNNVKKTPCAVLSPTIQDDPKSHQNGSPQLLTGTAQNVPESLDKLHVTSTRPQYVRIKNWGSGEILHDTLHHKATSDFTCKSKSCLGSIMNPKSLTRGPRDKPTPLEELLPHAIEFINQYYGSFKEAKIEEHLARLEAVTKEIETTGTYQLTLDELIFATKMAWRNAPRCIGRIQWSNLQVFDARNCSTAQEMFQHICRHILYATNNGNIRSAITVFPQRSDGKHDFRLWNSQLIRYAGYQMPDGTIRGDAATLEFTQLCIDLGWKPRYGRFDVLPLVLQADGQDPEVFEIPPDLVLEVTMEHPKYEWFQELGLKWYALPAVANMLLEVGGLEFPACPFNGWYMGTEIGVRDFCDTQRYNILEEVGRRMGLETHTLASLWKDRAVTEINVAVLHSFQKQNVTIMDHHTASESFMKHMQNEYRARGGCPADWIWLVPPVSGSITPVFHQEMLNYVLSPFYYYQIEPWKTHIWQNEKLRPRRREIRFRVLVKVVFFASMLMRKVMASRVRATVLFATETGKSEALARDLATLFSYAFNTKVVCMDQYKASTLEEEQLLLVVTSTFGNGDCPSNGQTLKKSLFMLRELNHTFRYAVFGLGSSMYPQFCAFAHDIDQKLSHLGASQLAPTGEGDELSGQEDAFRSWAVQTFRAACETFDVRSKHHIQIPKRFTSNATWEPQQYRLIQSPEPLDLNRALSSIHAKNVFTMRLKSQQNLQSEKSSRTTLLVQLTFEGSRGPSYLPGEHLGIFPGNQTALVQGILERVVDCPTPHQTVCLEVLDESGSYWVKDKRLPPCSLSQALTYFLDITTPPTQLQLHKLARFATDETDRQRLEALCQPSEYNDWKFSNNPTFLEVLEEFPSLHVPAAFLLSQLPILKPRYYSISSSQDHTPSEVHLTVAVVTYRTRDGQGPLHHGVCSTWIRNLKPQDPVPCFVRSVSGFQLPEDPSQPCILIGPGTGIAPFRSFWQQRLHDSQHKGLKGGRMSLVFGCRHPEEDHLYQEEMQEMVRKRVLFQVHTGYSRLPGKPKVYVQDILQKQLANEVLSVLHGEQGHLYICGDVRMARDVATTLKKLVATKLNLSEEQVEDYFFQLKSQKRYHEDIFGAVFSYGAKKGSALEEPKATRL
T1 sequence (P29476 whole entry): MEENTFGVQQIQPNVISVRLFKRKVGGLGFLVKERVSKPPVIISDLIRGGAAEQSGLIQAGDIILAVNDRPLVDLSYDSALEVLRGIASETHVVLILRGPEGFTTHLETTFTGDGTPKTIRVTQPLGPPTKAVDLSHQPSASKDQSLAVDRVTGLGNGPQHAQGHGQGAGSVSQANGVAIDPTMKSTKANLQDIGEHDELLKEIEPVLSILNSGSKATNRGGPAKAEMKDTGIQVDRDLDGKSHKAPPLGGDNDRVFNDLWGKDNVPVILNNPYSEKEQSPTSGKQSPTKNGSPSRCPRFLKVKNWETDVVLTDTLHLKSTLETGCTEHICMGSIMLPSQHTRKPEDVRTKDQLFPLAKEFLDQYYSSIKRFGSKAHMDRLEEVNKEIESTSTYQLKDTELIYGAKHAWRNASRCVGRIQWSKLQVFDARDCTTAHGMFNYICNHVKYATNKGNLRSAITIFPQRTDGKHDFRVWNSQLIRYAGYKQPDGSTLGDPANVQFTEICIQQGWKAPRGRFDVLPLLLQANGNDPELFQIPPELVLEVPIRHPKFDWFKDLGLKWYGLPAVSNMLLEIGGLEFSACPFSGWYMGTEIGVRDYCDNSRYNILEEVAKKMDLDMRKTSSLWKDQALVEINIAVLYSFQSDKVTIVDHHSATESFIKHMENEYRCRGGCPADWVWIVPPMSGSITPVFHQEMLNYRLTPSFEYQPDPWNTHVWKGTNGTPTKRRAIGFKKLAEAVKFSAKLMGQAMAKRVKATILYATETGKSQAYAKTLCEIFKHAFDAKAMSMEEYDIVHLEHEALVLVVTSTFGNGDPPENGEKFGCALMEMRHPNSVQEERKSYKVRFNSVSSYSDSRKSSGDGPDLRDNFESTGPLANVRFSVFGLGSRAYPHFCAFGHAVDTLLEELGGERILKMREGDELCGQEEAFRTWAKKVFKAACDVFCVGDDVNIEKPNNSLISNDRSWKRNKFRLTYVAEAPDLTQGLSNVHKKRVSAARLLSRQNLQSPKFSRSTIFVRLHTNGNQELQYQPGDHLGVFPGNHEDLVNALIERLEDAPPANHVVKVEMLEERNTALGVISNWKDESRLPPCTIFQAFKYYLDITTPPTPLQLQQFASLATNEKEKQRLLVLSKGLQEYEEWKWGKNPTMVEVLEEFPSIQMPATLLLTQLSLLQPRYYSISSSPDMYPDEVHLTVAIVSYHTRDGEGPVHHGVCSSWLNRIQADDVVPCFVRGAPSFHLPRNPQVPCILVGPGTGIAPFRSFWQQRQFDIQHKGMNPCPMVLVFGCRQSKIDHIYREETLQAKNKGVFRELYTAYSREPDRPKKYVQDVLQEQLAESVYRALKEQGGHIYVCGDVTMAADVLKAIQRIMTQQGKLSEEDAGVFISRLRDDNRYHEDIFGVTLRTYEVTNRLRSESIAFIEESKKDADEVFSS

Turning to nitric oxide [nitric oxide (NO)], in assay [1] (accompanying relaxation of bovine coronary artery), the cGMP accumulation entry was “cGMP accumulation”. The “relaxation of bovine coronary artery” value in assay [1] is “potent and transient relaxation”.
A word on the IC50: it is the concentration that gives 50% inhibition. A low value points to greater potency. `Cc1ccc([N+](=O)[O-])c(NC/C=C/[C@H](N)CO)c1` [Example 3, (2S)-2-amino-5-(5-methyl-2-nitrophenylamino)-pent-3E-en-1-ol]: in assay [2], the inhibition at 100 µM is 99% and the IC50 is 3 µM. Half-maximal inhibition in assay [3] (IC50) was put at 10 µM.
Consider N-hydroxyarginine, for which the “substrate for the NO synthase enzyme” value in assay [4] is “substrate”.
Take `Cc1ccc([N+](=O)[O-])c(NCCCC[C@H](N)C(=O)O)c1` [Example 7, (2S)-2-amino-6-(2-nitro-5-methylphenylamino)hexanoic acid]: in assay [2], the inhibition at 100 µM worked out at 91% and the midpoint of inhibition, the IC50, lay at 40 µM. Moreover, the IC50 in assay [3] is > 100 µM.
As to `N[C@@H](CCCNc1c(Cl)cccc1[N+](=O)[O-])C(=O)O` [Example 6, (2S)-2-amino-5-(2-chloro-6-nitrophenylamino)pentanoic acid], in assay [2], the inhibition at 100 µM was 55% and half-maximal inhibition (IC50) required 100 µM. Also, in assay [3], the inhibition at 100 µM was 11% and the IC50 is > 100 µM.
`Cc1ccc([N+](=O)[O-])c(NCCC[C@@H](N)C(=O)O)c1` [Example 10, (2R)-2-amino-5-(5-methyl-2-nitrophenylamino)pentanoic acid]: in assay [2], the inhibition at 100 µM is 58% and the IC50 worked out at 70 µM. For the same compound, in assay [3], the inhibition at 100 µM worked out at 45% and half-maximal inhibition (IC50) was put at 100 µM.
As for `N#Cc1ccccc1NCCC[C@H](N)C(=O)O` [Example 11, (2S)-2-amino-5-(2-cyanophenylamino)pentanoic acid], in assay [2], the inhibition at 100 µM was 6% and the IC50 was > 100 µM. For the same compound, in assay [3], the inhibition at 100 µM amounted to 50% and half-maximal inhibition (IC50) required 100 µM.
Regarding `Cc1ccc([N+](=O)[O-])c(NCCCC(N)CO)c1` (centres unmarked) [Example 4, 2-amino-5-(5-methyl-2-nitrophenylamino)-1-pentanol], in assay [2], the inhibition at 100 µM was 94% and 3 µM corresponded to half-maximal inhibition (IC50). In addition, in assay [3], the inhibition at 100 µM is 99% and the IC50 stood at 2.5 µM.
On the same counts, the results for `COc1ccc([N+](=O)[O-])c(NCCC[C@H](N)C(=O)O)c1` [Example 5, (2S)-2-amino-5-(5-methoxy-2-nitrophenylamino)pentanoic acid] are 68%, 20 µM, 46% and 100 µM.
Take `N=C(NCCC[C@H](N)C(=O)O)N[N+](=O)[O-]` [NNLA, NNitro-L-arginine, reference compound]: the inhibition at 100 µM in assay [2] came to 95%. In assay [3], the inhibition at 100 µM was 94% and it took 7 µM to reach half-maximal inhibition (IC50).
In the case of `Cc1ccc([N+](=O)[O-])c(NCCC[C@H](N)C(=O)O)c1` [Example 2, (2S)-2-amino-5-(5-methyl-2-nitrophenylamino)pentanoic acid], in assay [2], the inhibition at 100 µM came out at 88% and half-maximal inhibition (IC50) required 4 µM. In assay [3], the inhibition at 100 µM was 88% and it took 10 µM to reach half-maximal inhibition (IC50).
On to `Cc1ccc([N+](=O)[O-])c(SCCC[C@H](N)C(=O)O)c1` [Example 8, 2(S)-amino-5-(5-methyl-2-nitrophenylthioxy)pentanoic acid], for which, in assay [2], the inhibition at 100 µM came to 97% and the IC50 turned out to be 1 µM. In assay [3], the inhibition at 100 µM amounted to 95% and the IC50 was found to be 9 µM.
For the compound `CNC(=N)NCCCC(N)C(=O)O` (centres unmarked) [N^G -methylarginine], the “EDRF (NO) production” value in assay [5] is on record as “inhibited”.
